What all share (assay type): cell-based
The nature of experiment [1]: Hoechst 33342 nuclear staining (48 h read-out). An outline of the steps:
(§1)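 Adherent cells pre-spread 24 h before dosing, suspension cells dosed at seeding; compounds at 0.001 μM-10 μM final, 48 h at culture conditions. Hoechst 33342 (2-5 μg/ml) added for 30 min, then fluorescence microscopy scoring of apoptotic nuclear fraction and apoptosis-specific morphology, reported as scores A-D.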

Experiment [2] relates to tumor cells. Put plainly: Hoechst 33342 nuclear staining (48 h read-out). An outline of the steps: as §1
Experiment [3] in a line: Mitochondrial membrane potential, JC-1 (read-out 48 h). Particulars: PBL, JC-1, 48 h. Put shortly:
(§2)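 Tumor cells were treated with test compounds (adherent cells after 24 h of attachment, suspension cells immediately), medium holding up to 5% DMSO. After 48 h, JC-1 (2-5 μg/ml in added medium) was applied for 30 min. Fluorescence microscopy (FITC/TRITC filters) scored the fraction of cells with dissipated mitochondrial membrane potential as categories A-D.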

The test system of experiment [4] is tumor cells. Described as above. Particulars: JC-1, 48 h. Put shortly:
as §2

Experiment [5] can be described thus: MTS proliferation assay (72 h read-out). As to conditions: MRC5 cells. An outline of the steps: (§3)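 Tumour cells (1.5×10^3–10^4 per well) were seeded 24 h before compound addition, then exposed to 0.001–10 μM final compound for 72 h under culture conditions. MTS reagent was added for a further 3 h, absorbance was read at 492 nm, and results were binned into scores A–D.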
(In general: Tetrazolium assays rely on reduction of a dye to a coloured formazan, in cell work by metabolically active cells.)

Experiment [6] concerns tumor cells. Nature of the experiment: MTS proliferation assay (72 h read-out). Put shortly:
as §3

Where [7] appears, read: MRC5 cells, read-out: Hoechst 33342 nuclear staining EC50, MRC5.
[8] abbreviates: PBL, read-out: Hoechst 33342 nuclear staining EC50, PBL.
[9] abbreviates: HeLa cells, read-out: Hoechst 33342 nuclear staining EC50, HeLa.
The mark [10] stands for this setting: Jily cells, read-out: Hoechst 33342 nuclear staining EC50, Jily.
Where [11] appears, read: Jurkat cells, read-out: Hoechst 33342 nuclear staining EC50, Jurkat.
The mark [12] stands for this setting: HeLa cells, read-out: Mitochondrial membrane potential (read-out 48 h) HeLa.
Setting [13] is: Jily cells, read-out: Mitochondrial membrane potential (read-out 48 h) Jily.
[14] abbreviates: Jurkat cells, read-out: Mitochondrial membrane potential (read-out 48 h) Jurkat.
Where [15] appears, read: MCF7 cells, read-out: Mitochondrial membrane potential (read-out 48 h) MCF7.
The mark [16] stands for this setting: HT1080 cells, read-out: MTS proliferation assay IC50, HT1080.
Where [17] appears, read: HeLa cells, read-out: MTS proliferation assay IC50, HeLa.
Where [18] appears, read: Jily cells, read-out: MTS proliferation assay IC50, Jily.
Setting [19] is: Jurkat cells, read-out: MTS proliferation assay IC50, Jurkat.

Read-outs that look alike come from different tables or passages of the source.

Turning to `O=C(c1cc2cc(OCc3ccccc3)ccc2o1)c1cc(F)ccc1N1CCOCC1` [Example 106], the EC50 in experiment [1] (setting [7]), in experiment [1] (setting [8]), in experiment [2] (setting [9]), in experiment [2] (setting [10]), in experiment [2] (setting [11]) and in experiment [3] was greater than 1000 nM each time. The EC50 in experiment [4] (setting [12]), in experiment [4] (setting [13]), in experiment [4] (setting [14]) and in experiment [4] (setting [15]) was greater than 1000 nM throughout. Moreover, the IC50 in experiment [5], in experiment [6] (setting [16]), in experiment [6] (setting [17]), in experiment [6] (setting [18]) and in experiment [6] (setting [19]) was greater than 1000 nM in each case.

With `O=C(c1cc2cc(O)ccc2o1)c1cc(F)ccc1N1CCOCC1` [Example 107], the EC50 in experiment [1] (setting [7]) was 100 to 1000 nM; in experiment [1] (setting [8]) it was greater than 1000 nM; in experiment [2] (setting [9]), 100 to 1000 nM; in experiment [2] (setting [10]) it was 100 to 1000 nM; in experiment [2] (setting [11]) it was 100 to 1000 nM; in experiment [3], greater than 1000 nM. Further, the EC50 lay in the range of 100 to 1000 nM in experiment [4] (setting [12]), 10 to 100 nM in experiment [4] (setting [13]), 10 to 100 nM in experiment [4] (setting [14]) and 100 to 1000 nM in experiment [4] (setting [15]). Moreover, the IC50 in experiment [5], in experiment [6] (setting [16]), in experiment [6] (setting [17]), in experiment [6] (setting [18]) and in experiment [6] (setting [19]) was 10 to 100 nM in each case.

Turning to `CCOc1ccc2oc(C(=O)c3cc(F)ccc3N3CCOCC3)cc2c1` [Example 108], the EC50 was 10 to 100 nM in experiment [1] (setting [7]); greater than 1000 nM in experiment [1] (setting [8]); 10 to 100 nM in experiment [2] (setting [9]); 10 to 100 nM in experiment [2] (setting [10]); 10 to 100 nM in experiment [2] (setting [11]); greater than 1000 nM in experiment [3]. The EC50 lay in the range of 100 to 1000 nM in experiment [4] (setting [12]), 10 to 100 nM in experiment [4] (setting [13]), 10 to 100 nM in experiment [4] (setting [14]) and 100 to 1000 nM in experiment [4] (setting [15]). Moreover, the IC50 in experiment [5], in experiment [6] (setting [16]), in experiment [6] (setting [17]), in experiment [6] (setting [18]) and in experiment [6] (setting [19]) was 10 to 100 nM in each case.

For `O=C(c1cc2cc(OCc3ccccc3)ccc2o1)c1cc(F)ccc1N1CC=CCC1` [Example 109], the EC50 in experiment [1] (setting [7]), in experiment [1] (setting [8]), in experiment [2] (setting [9]), in experiment [2] (setting [10]), in experiment [2] (setting [11]) and in experiment [3] was greater than 1000 nM in each case. The EC50 in experiment [4] (setting [12]), in experiment [4] (setting [13]), in experiment [4] (setting [14]) and in experiment [4] (setting [15]) was greater than 1000 nM throughout. For the same compound, the IC50 in experiment [5], in experiment [6] (setting [16]), in experiment [6] (setting [17]), in experiment [6] (setting [18]) and in experiment [6] (setting [19]) was greater than 1000 nM each time.

Take `O=C(c1cc2cc(OCc3ccccc3)ccc2o1)c1cc(F)ccc1N1CCCCC1` [Example 110]: the EC50 in experiment [1] (setting [7]), in experiment [1] (setting [8]), in experiment [2] (setting [9]), in experiment [2] (setting [10]), in experiment [2] (setting [11]) and in experiment [3] was greater than 1000 nM throughout. Further, the EC50 in experiment [4] (setting [12]), in experiment [4] (setting [13]), in experiment [4] (setting [14]) and in experiment [4] (setting [15]) was greater than 1000 nM throughout. For the same compound, the IC50 in experiment [5], in experiment [6] (setting [16]), in experiment [6] (setting [17]), in experiment [6] (setting [18]) and in experiment [6] (setting [19]) was greater than 1000 nM throughout.

For `CCOc1ccc(F)cc1C(=O)c1sc2ncccc2c1N` [Example 113, 3-Amino-2-(2′-ethoxy-5-fluorobenzoyl)-thieno[2,3-b]pyridine], the EC50 in experiment [1] (Homo sapiens, MRC5 cells, read-out: Hoechst 33342 nuclear staining EC50, MRC5) was greater than 1000 nM; in experiment [1] (setting [8]) it was greater than 1000 nM; in experiment [2] (Homo sapiens, HeLa cells, read-out: Hoechst 33342 nuclear staining EC50, HeLa), 100 to 1000 nM; in experiment [2] (Homo sapiens, Jurkat cells, read-out: Hoechst 33342 nuclear staining EC50, Jurkat), 100 to 1000 nM; in experiment [2] (setting [10]), 100 to 1000 nM; in experiment [3], greater than 1000 nM. Besides, the EC50 in experiment [4] (Homo sapiens, HeLa cells, read-out: Mitochondrial membrane potential (read-out 48 h) HeLa) is greater than 1000 nM; in experiment [4] (Homo sapiens, Jurkat cells, read-out: Mitochondrial membrane potential (read-out 48 h) Jurkat), 100 to 1000 nM; in experiment [4] (Homo sapiens, MCF7 cells, read-out: Mitochondrial membrane potential (read-out 48 h) MCF7), greater than 1000 nM; in experiment [4] (setting [13]) it was 100 to 1000 nM. The IC50 in experiment [5] (Homo sapiens) is greater than 1000 nM; in experiment [6] (Homo sapiens, HT-1080, HT1080 cells, read-out: MTS proliferation assay IC50, HT1080) it was greater than 1000 nM; in experiment [6] (Homo sapiens, HeLa cells, read-out: MTS proliferation assay IC50, HeLa) it was 100 to 1000 nM; in experiment [6] (Homo sapiens, Jurkat cells, read-out: MTS proliferation assay IC50, Jurkat), 100 to 1000 nM; in experiment [6] (setting [18]) it was 100 to 1000 nM.

These data come from US8486996B2, “Aroylfuranes and aroylthiophenes” (Basilea Pharmaceutica AG, priority 2006, dated 2013).
